Experimental data taken from patent US20230147249A1, “METHODS OF APPLYING A FUMIGANT TO REDUCE FUSARIUM CONTAMINATION” (Taminco BV, priority 2020, published 2023).

Key:
Foc TR4 chlamydospores = experiment: Efficacy of metam sodium on Foc TR4 chlamydospores in vitro (colony growth on PDA plates); type: cell-based, Fusarium oxysporum f. sp. cubense Tropical Race 4
Procedure: Foc TR4 chlamydospores were extracted from infested soil and incubated with a dilution series of metam sodium for 5 min and 60 min at room temperature. Thereafter, the samples were diluted 10× to get reduction of the treatment and sufficient dilution of chlamydospores to avoid lack of resolution when grown on plate. Aliquots of 100 μl were plated on PDA plates in duplicate and incubated for 3 days at 25° C. Plates were photographed and scored.

Cavendish banana plants = experiment: Field trial: growth and development of banana plants after metam sodium soil injection at 30 cm and 60 cm; type: in vivo, Cavendish banana (Musa)
Procedure: The analyses described in this example were carried out in the Philippines in a field in which Musa trees (specifically bananas) were to be planted, in the spring (beginning in March). Final determinations were carried out in September of the same year.
(§1) Metam Sodium Application. Metam sodium 510 SL (equivalent to 42% w/w) was applied to soil at the following doses: 0 liters per hectare (L/ha), 750 L/ha, 1500 L/ha, 2250 L/ha, 3000 L/ha.
(§2) Prior to injection, soil was prepared using a rototiller to break the soil structure from 0 cm to 80 cm deep, allowing for the smooth and even injection application by an injection machine. The soil was then leveled and made uniform, and the metam sodium was applied at two depths: 30 cm and 60 cm, using injection methods. The temperature was at a minimum of 10 QC and soil humidity was between 50 and 60% holding capacity, allowing the applied product to transform from metam sodium (liquid) to MITC (gas).
(§3) The application was made using an injection machine wherein the machine lowered shanks and began moving forward such that the shanks lowered to a depth of 60 cm and injectors applied the metam sodium into the soil. When the injection at 60 cm was complete, the process was repeated for the entire field at 30 cm. The treated soil in the field was then sealed using a packer roller (which was part of the injection machinery, located at the back end of the machine), after each application.
Plant Selection and Transplantation. Cavendish banana plants were used for this investigation. In order to avoid plants already contaminated by other soil, all plants were produced in vitro using art-recognized methods. Plants were transplanted into the field 14 days after the final soil reading was taken (21 days after treatment).
Data Gathering. Data were gathered at monthly intervals beginning three months after banana plants were transplanted. A total of three data collection sessions were conducted. Data including the number of leaves, plant height, and girth size were collected.

[1] = system: F. oxysporum f. sp. cubense; experiment: Panama disease analysis of soil samples after metam sodium soil injection; type: in vivo, Fusarium oxysporum f. sp. cubense Tropical Race 4; conditions: any of the treated groups (750-3000 L/ha); any day post application
Procedure: as §1, §2, §3
Soil Analysis. Soil samples were obtained at 20, 40, and 60 cm before application and every 24 hours beginning 48 hours after application, for seven days.
Plant Pathology Analysis. […]

[2] = 750 L/ha, six months after treatment
[3] = 1500 L/ha, six months after treatment
[4] = 2250 L/ha, six months after treatment
[5] = 3000 L/ha, six months after treatment

With `CNC(=S)[S-].[Na+]` [metam sodium, sodium N-methyldithiocarbamate] the “effect of prolonged incubation on number of surviving chlamydospores (growing colonies)” value (Foc TR4 chlamydospores; 100× dilution, 60 min versus 5 min) was “more effective in reducing the number of surviving chlamydospores”, the “efficacy on Foc TR4 colony growth” value (Foc TR4 chlamydospores; dilution of 10×, incubation time 5 minutes) was “effective” and the “efficacy on Foc TR4 colony growth” value (Foc TR4 chlamydospores; dilution of 100×, 5 and 60 minutes) was “less effective”. For the same compound, the “reduction in viability of Foc TR4 chlamydospores (colony growth)” value (Foc TR4 chlamydospores; first test, dilutions from 1000 up to 10×10^6-fold, 60 min) was “No significant reduction in viability”, the “efficacy against Foc TR4 chlamydospores” value (Foc TR4 chlamydospores; in vitro conditions, dependent on high concentrations) was “effective against Foc TR4 chlamydospores” and the “efficacy on surviving chlamydospores” value (Foc TR4 chlamydospores; second test, 10× and 100× dilutions) was “(partially) effective”. The “number of chlamydospores that survived” value (Foc TR4 chlamydospores; second test, dilutions of 1000× and more) was “did not affect the number of chlamydospores that survived”, the “effect on average girth size of banana plant” value (Cavendish banana plants; 750 L/ha) was roughly 1 cm and the “increase in average height of banana plant” value (Cavendish banana plants; 750 L/ha) was roughly 5 cm. The “effect on plants reaching bagging stage” value (Cavendish banana plants; [2]) was “did not have a meaningful effect”, the “percent of plants at either shooting or bagging stage” value (Cavendish banana plants; [2]) was 11% and the “percent of plants at shooting stage” value (Cavendish banana plants; [2]) was 9%. For the same compound, the “increase in average girth size of banana plant” value (Cavendish banana plants; 1500-3000 L/ha) was 4-6 cm, the “increase in average height of banana plant” value (Cavendish banana plants; 1500-3000 L/ha) was 20-23 cm and the “percent of plants at either shooting or bagging stage” value (Cavendish banana plants; [3]) was 28%. For the same compound, the “percent of plants at shooting stage” value (Cavendish banana plants; [3]) was 10%, the “percent of plants at bagging stage” value (Cavendish banana plants; 1500 to 3000 L/ha, six months after treatment) was 11-19% and the “percent of plants at either shooting or bagging stage” value (Cavendish banana plants; [4]) was 27%. The “percent of plants at shooting stage” value (Cavendish banana plants; [4]) was 17%, the “percent of plants at either shooting or bagging stage” value (Cavendish banana plants; [5]) was 35% and the “percent of plants at shooting stage” value (Cavendish banana plants; [5]) was 22%. The “increase of average number of leaves per banana plant” value (Cavendish banana plants; regardless of dose applied (750-3000 L/ha), versus 0 L/ha) was “roughly 1.5 fold” and the “Foc TR4 detection in soil” value [1] was “No Foc TR4 was detected”.
